Like-named read-outs stand apart in the source and are kept apart here. Blank lines part the entries; values can stand above or below the compound they belong to.
Columns and labels:
[1] = test system: gamma-secretase; experiment: Six-day once-a-day oral dosing PK/PD in Tg2576 mice (brain, plasma, CSF Aβ); assay type: in vivo; details: positive control, orally once on day six, 6 hrs post dose
Experimental: Female transgenic mice (Tg2576, 3 months of age; n = 20), wild-type male CD-1 mice (six weeks of age; n = 8 to 12) or wild-type male Sprague Dawley rats (200 to 225 g body weight; n = 12) were utilized to assess in vivo efficacy.
In the transgenic studies, compound was dosed in 10:20:70 ethanol/solutol/water via oral gavage. […] The mice were subjected to cisterna magna puncture and collection of cerebrospinal fluid (CSF) (approximately 5 μl per mouse). Individual CSF samples were flash-frozen on dry ice and stored at -80°C. Thereafter, the mice were subjected to cardiac puncture and blood samples were collected into K2EDTA tubes and stored on wet ice until processed to plasma by centrifugation (2,000 g at 4°C for 10 minutes) within 30 minutes of collection. The plasma was aliquoted for both Aβ measurements and parent drug using LC/MS/MS. Both sets of tubes were frozen at -80°C. The brains were perfused with non-heparinized saline (the blood flushed away) and removed carefully. Brains were rinsed with ice cold PBS (without Mg^2+ or Ca^2+), blotted dry, dissected on ice into three pieces (left and right hemisphere and cerebellum). Samples were frozen in liquid nitrogen immediately prior to storage at -80°C. Cerebella were analyzed for parent drug via LC/MS/MS. Parent drug levels were compared to a standard curve to establish the plasma, brain and CSF levels. […]

[2] = test system: gamma-secretase; experiment: Aβ peptides in conditioned media of CHO-2B7 cells (MSD 3-Plex); assay type: cell-based, Chinese hamster; details: for IC50: 5 hrs treatment, conditioned media
Experimental: CHO-2B7 cells (Mayo Clinic) are Chinese hamster ovary cells stably transfected with human βAPP 695wt. The cells were cultured in Ham's F12 media (Thermo Fisher SH30026.01, Waltham, MA, USA) supplemented with 10% FBS, 0.25 mg/mL Zeocin and 90 ug/mL penicillin/streptomycin at 37°C in a 5% CO2 atmosphere. For compound treatment, cells were plated in 96-well plates at a density of 1.0 × 10^5 cells/mL and allowed grow to 100% confluence over two days. Test compounds in dimethyl sulfoxide (DMSO) were diluted 100-fold directly into the media before being adding to the cells. Immediately prior to adding compound-containing media to the cells, the cells were washed once with 1X PBS. Conditioned media from CHO-2B7 cells were collected after 5 hrs of treatment and the levels of Aβ peptides were assessed as described below.
Conditioned media were collected after 5 hrs of treatment and diluted with one volume of MSD blocking buffer (1% BSA in MSD wash buffer). MSD Human (6E10) Aβ 3-Plex plates, which are pre-spotted with three separate spots in each well containing capture antibodies against the unique C-terminal ends of Aβ38, Aβ40 and Aβ42, respectively, were blocked with MSD blocking buffer for one hour. Samples were transferred to the blocked plates with 6E10 detection antibody and incubated for 2 hrs at room temperature with orbital shaking followed by washing and reading according to the manufacturer's instructions (SECTOR® Imager 2400 Meso Scale Discovery, Gaithersburg MD, USA).

[3] = target: gamma-secretase; design: method as in PMID 22505028, PMID 19542625; details: weak modulator; cited from earlier work

SMILES: CC(C)CC[C@H](c1ccc(Cl)cc1)N1CC[C@@H](CC(=O)O)C[C@H]1c1ccc(C(F)(F)F)cc1 [Merck GSM-1]
effect on Aβ38 levels [1]: increased Aβ38 levels
effect on Aβ42 levels [1]: significantly reduced Aβ42

IC50 ([2]; CHO-2B7 cells, read-out: IC50 Aβ38): 259 nM
IC50 ([2]; CHO-2B7 cells, read-out: IC50 Aβ40): 2800 nM
IC50 ([2]; CHO-2B7 cells, read-out: IC50 Aβ42): 106 nM
SMILES: CCO[C@@H]([C@H]1C[C@@H](C)[C@H]2[C@@H](O1)[C@H](O)[C@@]1(C)[C@@H]3CC[C@H]4C(C)(C)[C@@H](O[C@H]5CN(C6CN(C(C)C)C6)CCO5)CC[C@@]45C[C@@]35CC[C@]21C)C(C)(C)O [SPI-1865]
Total Aβ ([2]; CHO-2B7 cells): only decreased at doses where cytotoxicity was observed
IC25 Aβ42 ([2]; in vitro): 33 ± 18 nM

SMILES: C[C@@H](C(=O)O)c1ccc(-c2ccccc2)c(F)c1 [Flurizan]
IC50 [3]: 250000 nM

Reference: publication PMC3707052 (Alzheimer's Research & Therapy, 2013)
